Results as given in patent publication US12239686B2, “Immune checkpoint inhibitor combinations” (LYTIX BIOPHARMA AS, priority 2014, dated 2025).
Non-standard residues stand in square brackets, D forms with d. Residues, ends and D or L forms follow the SMILES beside them. Dip = N[C@H](C(=O)O)C(c1ccccc1)c1ccccc1

Assays:
[1] = test system: murine CT26WT colon carcinoma; experiment: Murine CT26WT colon carcinoma tumours in mice, intratumoural treatment; assay type: in vivo; conditions: for Mean tumour size (mm^2) at day 1: prior to start of treatment
Procedure: The administration takes place by intra-tumoural injection of LTX-315 dissolved in sterile saline (0.9% NaCl in sterile water).
The mice were divided into five groups, 8 mice in each group. When the tumours reached the desired size of 20 mm^2 the treatment by intra tumoural injection was initiated. Group one was treated solely on day 1, Group two on day 1 and 2, Group three on day 1 and 3 and Group four on day 1, 2 and 3. All daily treatments were one single injection of 1.0 mg LTX-315 dissolved in 50 μl (20 mg/ml). Group five was treated with the 50 μl of vehicle for LTX-315 (Group 5).
Weighing and physical examination were used as health controls.

A375 cells [2] = experiment: TEM electron microscopy, ultrastructural changes; assay type: cell-based, human
Procedure: A375 cells were seeded at 1×10^5 cells per well in 6-well plates and allowed to grow for three days to optimize membrane structures in the culture, and the media was changed on the second day. Cells were washed twice in serum-free RPMI before being treated with LTX-315 dissolved in serum-free RPMI at 5, 10 and 25 μg/ml, with serum-free RPMI as a negative control. Cells were then washed with PBS twice before fixation for 24 hours in 4° C. with 4% formaldehyde and 1% gluteralaldehyde in a Hepes buffer at pH 7.8. Dehydration and post-fixation protocols included incubation in a 5% buffered tannic acid and incubation in a 1% osmium-reduced ferrocyanide. Ultrathin sections were prepared, and uranyl acetate (5%) and Reynolds's lead citrate were used for staining and contrasting. Samples were examined on a JEOL JEM-1010 transmission electron microscope, and images were taken with an Olympus Morada side-mounted TEM CCD camera (Olympus soft imaging solutions, GmbH, Germany).

A375 cells [3] = experiment: Release of HMGB1, Western blot of lysate and supernatant; assay type: cell-based, human; conditions: 35 μM, 5-60 min
Procedure: A375 cells were seeded with 3×10^5 cells/well in 6-well plates in a complete media, and allowed to adhere overnight. Cells were treated with LTX-315 or LTX-328 at 35 μM, and incubated at 37° C. and 5% CO2 for different time points (5, 10, 15, 30, 60 min), and negative controls were serum-free RPMI-1650. Supernatants (S) were collected and centrifuged at 1,400 g for five minutes, and cell lysates (L) were harvested after washing with PBS twice and then subsequently lysed using a 4× Sample buffer (Invitrogen, number), 0.1 M DTT (Sigma number) and water. Supernatants were concentrated using Amicon Ultra 50K centrifugal filters (Millipore UFC505024), and the cell lysate was sonicated. Both supernatants and lysate were boiled and resolved in a 10% sodium dodecyl sulfate polyacrylamide gel electrophoresis (SDS-PAGE), and then electro transferred to a polyvindiline difluoride (PVDF) membrane (Millipore). The membrane was blocked in 5% milk and incubated with the HMGB1 antibody (rabbit, polyclonal, abcam ab 18256); the membrane was then rinsed several times with TBST, incubated with a horseradish peroxidase (HRP)-conjugated secondary antibody (abcam ab6721), rinsed again with TBST and then developed using WB Luminol Reagent (Santa Cruz Biotechnology, Heidelberg, Germany).

[4] = Group 1, 1 mg intratumoural day 1
[5] = Group 2, 1 mg intratumoural days 1,2
[6] = Group 3, 1 mg intratumoural days 1,3
[7] = Group 4, 1 mg intratumoural days 1,2,3

NCCCC[C@H](NC(=O)[C@@H](NC(=O)[C@H](Cc1c[nH]c2ccccc12)NC(=O)[C@H](CCCCN)NC(=O)[C@H](CCCCN)NC(=O)[C@H](Cc1c[nH]c2ccccc12)NC(=O)[C@H](Cc1c[nH]c2ccccc12)NC(=O)[C@H](CCCCN)NC(=O)[C@@H](N)CCCCN)C(c1ccccc1)c1ccccc1)C(N)=O [LTX-315, K-K-W-W-K-K-W-Dip-K-NH2] (H-KKWWKKW[Dip]K-NH2)
Relapse of Tumour ([1]; Group 1, 1 mg day 1): 20% | Free of Tumour at end of Follow-Up ([1]; Group 1, 1 mg day 1, n=8): 50% | Mean tumour size (mm^2) on day 6 [1, 4]: 4.343 ± 2.295 mm^2 | Mean tumour size (mm^2) on day 10 [1, 4]: 7.171 ± 4.035 mm^2 | Mean tumour size (mm^2) on day 17 [1, 4]: 3.712 ± 3.712 mm^2 | Mean tumour size (mm^2) at day 1 [1, 4]: 22.69 ± 0.4070 mm^2 | Relapse of Tumour ([1]; Group 2, 1 mg days 1,2): 71% | Free of Tumour at end of Follow-Up ([1]; Group 2, 1 mg days 1,2, n=8): 25% | Mean tumour size (mm^2) on day 6 [1, 5]: 1.458 ± 1.458 mm^2 | Mean tumour size (mm^2) on day 10 [1, 5]: 5.058 ± 4.014 mm^2 | Mean tumour size (mm^2) on day 17 [1, 5]: 6.644 ± 3.430 mm^2 | Mean tumour size (mm^2) at day 1 [1, 5]: 22.90 ± 1.155 mm^2 | Relapse of Tumour ([1]; Group 3, 1 mg days 1,3): 29% | Free of Tumour at end of Follow-Up ([1]; Group 3, 1 mg days 1,3, n=8): 62.5% | Mean tumour size (mm^2) on day 6 [1, 6]: 2.983 ± 2.983 mm^2 | Mean tumour size (mm^2) on day 10 [1, 6]: 10.85 ± 7.553 mm^2 | Mean tumour size (mm^2) on day 17 [1, 6]: 0.00 ± 0.00 mm^2 | Mean tumour size (mm^2) at day 1 [1, 6]: 21.43 ± 1.141 mm^2 | Free of Tumour at end of Follow-Up ([1]; Group 4, 1 mg days 1,2,3, n=8): 62.5% | Tumour Response: complete response ([1]; Group 4, 1 mg days 1,2,3, n=8): 100% | Mean tumour size (mm^2) on day 6 [1, 7]: 0.00 ± 0.00 mm^2 | Mean tumour size (mm^2) on day 10 [1, 7]: 0.00 ± 0.00 mm^2 | Mean tumour size (mm^2) on day 17 [1, 7]: 1.308 ± 1.308 mm^2 | Mean tumour size (mm^2) at day 1 [1, 7]: 24.09 ± 1.653 mm^2 | treated animals observed with a complete tumour response ([1]; all four LTX-315 groups together): 27 of the 32 | toxic or other adverse effects ([1]; all treated groups): No toxic or other adverse effects besides local necrotic tissue and wound formation were observed | cells with vacuolization (A375 cells [2]; 3.5 μM): approximately 20% | number of necrotic cells (A375 cells [2]; 3.5 μM, 60 minutes): less than 5% | cells displaying vacuolization (A375 cells [2]; 17 μM, 60 min): 4% | cells with necrotic morphology with loss of plasma membrane integrity (A375 cells [2]; 17 μM, 60 min): approximately 40% | HMGB1 translocation from cell lysate to supernatant (A375 cells [3]): gradual translocation from the cell lysate to the supernatant detected
